Data on 5 compounds can be found in patent US12187773B2, “Modified GIP peptide analogues” (Antag Therapeutics ApS, priority 2018, dated 2025).

For orientation: IC50 means the concentration that gives 50% inhibition. A high value points to weaker potency.

Where two headings read alike, the source gives them in different places. *1 amine or outer side, *2 acyl side, *3 side chain or, on linkers, in order; H or OH if unused. Where a SMILES comes first, the peptide text is derived from it. Side-chain parts run from the residue outwards. [ ]: non-standard residue; d: D form. The star is where a group is joined. C18 diacid = O=C(O)CCCCCCCCCCCCCCCCC(=O)*; C16 diacid = O=C(O)CCCCCCCCCCCCCCC(=O)*; γGlu = O=C(O)[C@H](CCC(=O)[*:2])N[*:1]; pGlu = O=C1CC[C@@H](C(=O)O)N1; AEEA = NCCOCCOCC(=O)O

The target of one series is T1, human GIP receptor (Homo sapiens, UniProt P48546).
T1 sequence (P48546 22-466): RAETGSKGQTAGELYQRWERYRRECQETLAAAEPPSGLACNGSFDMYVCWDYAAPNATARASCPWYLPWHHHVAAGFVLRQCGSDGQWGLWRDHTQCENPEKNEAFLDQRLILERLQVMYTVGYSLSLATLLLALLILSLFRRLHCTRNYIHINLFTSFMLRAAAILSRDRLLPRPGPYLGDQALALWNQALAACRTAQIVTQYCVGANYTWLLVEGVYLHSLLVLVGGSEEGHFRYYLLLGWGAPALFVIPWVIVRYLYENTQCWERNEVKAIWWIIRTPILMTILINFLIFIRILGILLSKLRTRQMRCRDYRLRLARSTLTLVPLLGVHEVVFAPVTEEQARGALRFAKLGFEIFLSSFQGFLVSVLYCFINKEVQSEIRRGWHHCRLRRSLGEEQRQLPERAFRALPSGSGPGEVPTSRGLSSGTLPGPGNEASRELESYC
The series is described as follows: cAMP antagonism (CisBio cAMP Dynamic 2 HTRF assay). Format: cell-based. Also noted: pCMV-Script vector. A digest of the protocol: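 Four-parameter fits of cAMP dose-response gave pIC50. cAMP fall was quantified by HTRF competition, ratio 665/620 nm after 60 min at room temperature, against a cAMP standard curve.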

Series [1] is described as follows: Elimination half-life (T1/2) estimated in Göttingen minipigs. Format: in vivo. How it is done: 2-3 Göttingen minipigs were subcutaneously administered one of the GIP analogues of the present invention (1-10 nmol/kg, total volume 2-6 mL) and blood samples were collected before and up to 432 hours post subcutaneous administration.) from a central venous catheter. The catheter was flushed with saline and heparin between samples. Blood was collected into cold EDTA tubes, centrifuged and plasma was kept at −20° C. pending analyses.
Concentrations of the acylated GIP(3-30)NH2 or GIP(5-30)NH2 analogues in blood samples from Göttingen minipigs were analyzed by RIA. Analogues' immunoreactivity was determined using antiserum Ab95234, Ab95235, Ab95236, a polyclonal in-house antibody raised in rabbits specific for either the mid region of GIP(1-30)NH2 or amidated C-terminus of GIP(3-30)NH2.
In addition to the hormone analysis, blood concentrations of AT374, 380, 382-385, 392-393 were determined by LC/MS performed by Red Glead Discovery AB, Lund, Sweden. The plasma samples were precipitated by addition of 3 parts ethanol followed by thorough mixing. After centrifugation and dilution of the supernatant, the samples were analyzed by LC-MS/MS and compared with a 9-point calibration curve. The calibration curves were prepared in naïve plasma matrix from Göttingen minipigs.

Where [2] appears, read: GIPR, Antagonism, nM, Table 3C, CisBio assay.
The mark [3] stands for this setting: Table 1C, CisBio, HEK-293 cells.
The mark [4] stands for this setting: cAMP antagonism, nM (IC50), Table 1C, CisBio, HEK-293 cells, agonist GIP1-42 at EC50.
Setting [5] is: sc, Table 1B, species not given, unit h, LC/MS in Göttingen minipig plasma for these IDs, subcutaneous 1-10 nmol/kg, read-out: T½ (converted).
Where [6] appears, read: Göttingen, minipig, plasma, subcutaneous, Example 1, read-out: T1/2 (converted).

Consider `CC[C@H](C)[C@H](NC(=O)[C@H](CO)NC(=O)[C@H](Cc1ccc(O)cc1)NC(=O)[C@H](CC(=O)O)NC(=O)[C@H](CO)NC(=O)[C@@H](NC(=O)[C@H](Cc1ccccc1)NC(=O)[C@@H](NC(=O)CNC(=O)[C@@H](N)CO)[C@@H](C)O)[C@@H](C)CC)C(=O)N[C@@H](C)C(=O)N[C@@H](CCSC)C(=O)N[C@@H](CC(=O)O)C(=O)N[C@@H](CCCNC(=N)N)C(=O)N[C@H](C(=O)N[C@@H](CCCCNC(=O)COCCOCCNC(=O)COCCOCCNC(=O)COCCOCCNC(=O)CC[C@H](NC(=O)CCCCCCCCCCCCCCC(=O)O)C(=O)O)C(=O)N[C@@H](CCC(N)=O)C(=O)N[C@@H](CCC(N)=O)C(=O)N[C@@H](CC(=O)O)C(=O)N[C@@H](Cc1ccccc1)C(=O)N[C@H](C(=O)N[C@@H](CC(N)=O)C(=O)N[C@@H](Cc1c[nH]c2ccccc12)C(=O)N[C@@H](CC(C)C)C(=O)N[C@@H](CC(C)C)C(=O)N[C@@H](C)C(=O)N[C@@H](CCC(N)=O)C(=O)N[C@@H](CCCNC(=N)N)C(N)=O)C(C)C)[C@@H](C)CC` [AT383] (H-SGTFISDYSIAMDRIK([AEEA-AEEA-AEEA-γGlu-C16 diacid])QQDFVNWLLAQR-NH2; N-terminus assumed), for which the IC50 against human GIP receptor (setting [2]) and at human GIP receptor (setting [4]) was 12.6 nM in each case. Moreover, on human GIP receptor (setting [3]), the “cAMP antagonism, % inhib” value stood at 89%. The “GIPR, Antagonism, % inhib” value on human GIP receptor (Table 3C, CisBio assay) came to 89%. In addition, the half-life in series [1] (setting [5]) was 720 min.

In the case of `CC[C@H](C)[C@H](NC(=O)[C@H](CO)NC(=O)[C@H](Cc1ccc(O)cc1)NC(=O)[C@H](CC(=O)O)NC(=O)[C@H](CO)NC(=O)[C@@H](NC(=O)[C@H](Cc1ccccc1)NC(=O)[C@@H](NC(=O)CNC(=O)[C@@H]1CCC(=O)N1)[C@@H](C)O)[C@@H](C)CC)C(=O)N[C@@H](C)C(=O)N[C@@H](CCSC)C(=O)N[C@@H](CC(=O)O)C(=O)N[C@@H](CCCNC(=N)N)C(=O)N[C@H](C(=O)N[C@@H](CCCCNC(=O)COCCOCCNC(=O)COCCOCCNC(=O)COCCOCCNC(=O)CC[C@H](NC(=O)CCCCCCCCCCCCCCCCC(=O)O)C(=O)O)C(=O)N[C@@H](CCC(N)=O)C(=O)N[C@@H](CCC(N)=O)C(=O)N[C@@H](CC(=O)O)C(=O)N[C@@H](Cc1ccccc1)C(=O)N[C@H](C(=O)N[C@@H](CC(N)=O)C(=O)N[C@@H](Cc1c[nH]c2ccccc12)C(=O)N[C@@H](CC(C)C)C(=O)N[C@@H](CC(C)C)C(=O)N[C@@H](C)C(=O)N[C@@H](CCC(N)=O)C(=O)N[C@@H](CCCNC(=N)N)C(N)=O)C(C)C)[C@@H](C)CC` [AT382] ([pGlu]GTFISDYSIAMDRIK([AEEA-AEEA-AEEA-γGlu-C18 diacid])QQDFVNWLLAQR-NH2), the IC50 on human GIP receptor (setting [2]) and on human GIP receptor (setting [4]) was 25.1 nM throughout. For the same compound, the “cAMP antagonism, % inhib” value on human GIP receptor (setting [3]) was found to be 83%. For the same compound, at human GIP receptor (Table 3C, CisBio assay), the “GIPR, Antagonism, % inhib” value came out at 83%. In addition, the half-life in series [1] (setting [6]) and in series [1] (setting [5]) was 1740 min each time.

For `CC[C@H](C)[C@H](NC(=O)[C@H](CO)NC(=O)[C@H](Cc1ccc(O)cc1)NC(=O)[C@H](CC(=O)O)NC(=O)[C@H](CO)NC(=O)[C@@H](NC(=O)[C@H](Cc1ccccc1)NC(=O)[C@@H](NC(=O)CNC(=O)[C@@H](N)CO)[C@@H](C)O)[C@@H](C)CC)C(=O)N[C@@H](C)C(=O)N[C@@H](CCSC)C(=O)N[C@@H](CC(=O)O)C(=O)N[C@@H](CCCNC(=N)N)C(=O)N[C@H](C(=O)N[C@@H](CCCCNC(=O)CCCCCCCCCCCCCCCCC(=O)O)C(=O)N[C@@H](CCC(N)=O)C(=O)N[C@@H](CCC(N)=O)C(=O)N[C@@H](CC(=O)O)C(=O)N[C@@H](Cc1ccccc1)C(=O)N[C@H](C(=O)N[C@@H](CC(N)=O)C(=O)N[C@@H](Cc1c[nH]c2ccccc12)C(=O)N[C@@H](CC(C)C)C(=O)N[C@@H](CC(C)C)C(=O)N[C@@H](C)C(=O)N[C@@H](CCC(N)=O)C(=O)N[C@@H](CCCNC(=N)N)C(N)=O)C(C)C)[C@@H](C)CC` [AT393] (H-SGTFISDYSIAMDRIK(C18 diacid)QQDFVNWLLAQR-NH2; N-terminus assumed), the IC50 against human GIP receptor (setting [2]) and at human GIP receptor (setting [4]) was 33.5 nM each time. The “cAMP antagonism, % inhib” value on human GIP receptor (setting [3]) is reported as 78%. Further, the “GIPR, Antagonism, % inhib” value at human GIP receptor (Table 3C, CisBio assay) stood at 78%. Also, the half-life in series [1] (setting [6]) and in series [1] (setting [5]) was 1500 min each time.

Turning to `CC[C@H](C)[C@H](NC(=O)[C@H](CO)NC(=O)[C@H](Cc1ccc(O)cc1)NC(=O)[C@H](CC(=O)O)NC(=O)[C@H](CO)NC(=O)[C@@H](NC(=O)[C@H](Cc1ccccc1)NC(=O)[C@@H](NC(=O)CNC(=O)[C@@H](N)CO)[C@@H](C)O)[C@@H](C)CC)C(=O)N[C@@H](C)C(=O)N[C@@H](CCSC)C(=O)N[C@@H](CC(=O)O)C(=O)N[C@@H](CCCNC(=N)N)C(=O)N[C@H](C(=O)N[C@@H](CCCCNC(=O)COCCOCCNC(=O)COCCOCCNC(=O)COCCOCCNC(=O)CC[C@H](NC(=O)CCCCCCCCCCCCCCCCC(=O)O)C(=O)O)C(=O)N[C@@H](CCC(N)=O)C(=O)N[C@@H](CCC(N)=O)C(=O)N[C@@H](CC(=O)O)C(=O)N[C@@H](Cc1ccccc1)C(=O)N[C@H](C(=O)N[C@@H](CC(N)=O)C(=O)N[C@@H](Cc1c[nH]c2ccccc12)C(=O)N[C@@H](CC(C)C)C(=O)N[C@@H](CC(C)C)C(=O)N[C@@H](C)C(=O)N[C@@H](CCC(N)=O)C(=O)N[C@@H](CCCNC(=N)N)C(N)=O)C(C)C)[C@@H](C)CC` [AT385] (H-SGTFISDYSIAMDRIK([AEEA-AEEA-AEEA-γGlu-C18 diacid])QQDFVNWLLAQR-NH2; N-terminus assumed), the IC50 at human GIP receptor (setting [2]) and on human GIP receptor (setting [4]) was 43 nM in each case. For the same compound, the “cAMP antagonism, % inhib” value on human GIP receptor (setting [3]) came out at 70%. At human GIP receptor (Table 3C, CisBio assay), the “GIPR, Antagonism, % inhib” value worked out at 70%. In addition, the half-life in series [1] (setting [6]) and in series [1] (setting [5]) was 1200 min throughout.

Turning to `CC[C@H](C)[C@H](NC(=O)[C@H](CO)NC(=O)[C@H](Cc1ccc(O)cc1)NC(=O)[C@H](CC(=O)O)NC(=O)[C@H](CO)NC(=O)[C@@H](NC(=O)[C@H](Cc1ccccc1)NC(=O)[C@@H](NC(=O)CNC(=O)[C@@H](N)CO)[C@@H](C)O)[C@@H](C)CC)C(=O)N[C@@H](C)C(=O)N[C@@H](CCSC)C(=O)N[C@@H](CC(=O)O)C(=O)N[C@@H](CCCNC(=N)N)C(=O)N[C@H](C(=O)N[C@@H](CCCCNC(=O)COCCOCCNC(=O)COCCOCCNC(=O)CC[C@H](NC(=O)CCCCCCCCCCCCCCCCC(=O)O)C(=O)O)C(=O)N[C@@H](CCC(N)=O)C(=O)N[C@@H](CCC(N)=O)C(=O)N[C@@H](CC(=O)O)C(=O)N[C@@H](Cc1ccccc1)C(=O)N[C@H](C(=O)N[C@@H](CC(N)=O)C(=O)N[C@@H](Cc1c[nH]c2ccccc12)C(=O)N[C@@H](CC(C)C)C(=O)N[C@@H](CC(C)C)C(=O)N[C@@H](C)C(=O)N[C@@H](CCC(N)=O)C(=O)N[C@@H](CCCNC(=N)N)C(N)=O)C(C)C)[C@@H](C)CC` [AT384] (H-SGTFISDYSIAMDRIK([AEEA-AEEA-γGlu-C18 diacid])QQDFVNWLLAQR-NH2; N-terminus assumed), the IC50 at human GIP receptor (setting [2]) and on human GIP receptor (setting [4]) was 54.1 nM throughout. Also, the “cAMP antagonism, % inhib” value at human GIP receptor (setting [3]) is recorded as 97%. Moreover, the “GIPR, Antagonism, % inhib” value on human GIP receptor (Table 3C, CisBio assay) amounted to 97%. The half-life in series [1] (setting [6]) and in series [1] (setting [5]) was 2160 min each time.
